Results on 78 compounds are retold here after the Kinase Knowledgebase extract (Sharma et al. 2016).

Molecules are shown by their SMILES.

The target of the assay is PIK3CA (human) (UniProt P42336). As to the kind of experiment: Inhibition of PIK3CA Kinase Activity.
Chain of PIK3CA (human) (P42336 whole entry, looked up): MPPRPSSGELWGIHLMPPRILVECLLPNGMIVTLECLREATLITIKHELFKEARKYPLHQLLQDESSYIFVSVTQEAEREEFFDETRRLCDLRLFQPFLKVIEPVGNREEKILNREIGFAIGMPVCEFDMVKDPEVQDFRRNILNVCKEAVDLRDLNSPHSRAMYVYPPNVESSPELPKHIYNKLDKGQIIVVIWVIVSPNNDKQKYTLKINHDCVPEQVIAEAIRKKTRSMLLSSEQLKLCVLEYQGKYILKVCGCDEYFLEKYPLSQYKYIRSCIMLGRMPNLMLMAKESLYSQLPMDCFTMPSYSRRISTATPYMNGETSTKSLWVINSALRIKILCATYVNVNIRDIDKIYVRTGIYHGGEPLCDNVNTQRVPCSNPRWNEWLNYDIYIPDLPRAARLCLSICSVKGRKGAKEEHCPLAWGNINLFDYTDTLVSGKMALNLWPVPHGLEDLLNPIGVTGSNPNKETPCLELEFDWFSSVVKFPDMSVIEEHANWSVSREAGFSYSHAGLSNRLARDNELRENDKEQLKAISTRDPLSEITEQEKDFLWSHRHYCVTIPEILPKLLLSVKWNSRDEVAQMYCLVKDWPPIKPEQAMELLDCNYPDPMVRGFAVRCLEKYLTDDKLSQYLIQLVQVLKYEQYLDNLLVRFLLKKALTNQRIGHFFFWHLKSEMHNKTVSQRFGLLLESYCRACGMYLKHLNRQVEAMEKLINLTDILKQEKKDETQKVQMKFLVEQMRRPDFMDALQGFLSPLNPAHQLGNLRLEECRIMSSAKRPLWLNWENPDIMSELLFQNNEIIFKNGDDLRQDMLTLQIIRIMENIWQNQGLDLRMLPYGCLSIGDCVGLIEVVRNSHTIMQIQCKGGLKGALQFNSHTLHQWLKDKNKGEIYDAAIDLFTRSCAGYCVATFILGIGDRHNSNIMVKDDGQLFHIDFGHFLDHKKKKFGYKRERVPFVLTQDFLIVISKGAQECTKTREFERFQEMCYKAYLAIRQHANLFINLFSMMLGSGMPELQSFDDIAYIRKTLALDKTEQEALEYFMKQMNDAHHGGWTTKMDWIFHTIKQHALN
Usually IC50 stands for the concentration that inhibits the measured activity by half. Low readings indicate greater potency, high ones weaker potency. In turn, `CCOC(=O)Nc1nc2ncc(-c3ccc4c(c3)CN(c3ncnc5c3CC(C)(C)CC5)CCO4)cc2[nH]1` came in with an IC50 of 50 to 250 nM.
As for `COc1cc2ncnc(N3CCOc4ccc(-c5ccc6nc(C)[nH]c6c5)cc4C3)c2cc1Cl`, the IC50 lay within 10 to 50 nM.
The compound `Cc1nc(CN(C)C)nc(N2CCOc3ccc(-c4ccc5[nH]c(CF)nc5c4)cc3C2)c1C(C)C` returned an IC50 not above 10 nM.
`Cc1ncnc(N2CCOc3ccc(-c4ccc(C(=O)NCC(F)F)cc4)cc3C2)c1Cc1ccc(F)cc1` showed an IC50 of 50 to 250 nM.
Under `COc1ccc2c(N3CCOc4ccc(-c5ccc(-c6nc7ccccc7[nH]6)cc5)cc4C3)nc(C)nc2c1` stands 250 to 1000 nM.
For `COc1cccc2c(N3CCOc4ccc(-c5ccc6nc(C)[nH]c6c5)cc4C3)ncnc12`, the IC50 was 10 to 50 nM.
Under `CCCc1c(C)nc(CN(C)C)nc1N1CCOc2ccc(-c3ccc4nc(C)[nH]c4c3)cc2C1` stands 10 to 50 nM; under `CC1(C)CCc2ncnc(N3CCOc4ccc(-c5ccc6nc[nH]c6c5)cc4C3)c2C1`, 50 to 250 nM; under `CC1(C)CCc2ncnc(N3CCOc4ccc(-c5cnc(N)c(S(=O)(=O)N6C7CCC6CC(N)C7)c5)cc4C3)c2C1` (stereo not drawn), 10 to 50 nM.
Under `CC1(C)CCc2ncnc(N3CCOc4ccc(-c5cnc6[nH]c(CF)nc6c5)cc4C3)c2C1` stands 10 to 50 nM; under `Cc1nc2cc(-c3ccc4c(c3)CN(c3nc(CN5CCCC5)nc(C)c3C(C)C)CCO4)ccc2[nH]1`, 10 to 50 nM; under `c1ccc2c(N3CCOc4ccc(-c5ccc6nc[nH]c6c5)cc4C3)ncnc2c1`, 10 to 50 nM.
The result for `CC(=O)OCc1nc(C)c(C(C)C)c(N2CCOc3ccc(-c4ccc5nc(C)[nH]c5c4)cc3C2)n1` reads 50 to 250 nM; that for `Cc1nc(N)sc1-c1ccc2c(c1)CN(c1ncnc(C)c1Cc1ccc(F)cc1)CCO2`, 250 to 1000 nM; that for `Cc1ncnc(N2CCOc3ccc(-c4cncs4)cc3C2)c1Cc1ccc(F)cc1`, 250 to 1000 nM.
`CC1(C)CCc2ncnc(N3CCOc4ccc(-c5cnc(N)c(S(=O)(=O)NC6CCC6)c5)cc4C3)c2C1` came in with a half-maximal inhibitory concentration (IC50) of 10 to 50 nM.
In turn, `Cc1nc2ccc(-c3ccc4c(c3)CN(c3ncnc(C)c3Cc3cccc(F)c3)CCO4)cc2[nH]1` registered an IC50 of 10 to 50 nM.
Compound `CC1(C)CCc2ncnc(N3CCOc4ccc(-c5cnc(N)c(S(=O)(=O)N6CC[C@@H](N)C6)c5)cc4C3)c2C1` had an IC50 of 10 to 50 nM.
`Cc1nc(Nc2ccccc2)c(C)c(N2CCOc3ccc(-c4ccc5nc[nH]c5c4)cc3C2)n1` gave an IC50 of 50 to 250 nM.
As for `CC1(C)CCc2ncnc(N3CCOc4ccc(-c5cnc6[nH]ncc6c5)cc4C3)c2C1`, the IC50 was in the range of 10 to 50 nM.
`CC1(C)CCc2ncnc(N3CCOc4ccc(-c5cnc6[nH]c(C(F)F)nc6c5)cc4C3)c2C1` returned an IC50 of 50 to 250 nM.
The result for `CC1(C)CCc2ncnc(N3CCOc4ccc(-c5cnc(C#N)c(NS(C)(=O)=O)c5)cc4C3)c2C1` reads 50 to 250 nM; that for `Cc1nc2ncc(-c3ccc4c(c3)CN(c3nc(CN5CC[C@H](F)C5)nc5c3CC(C)(C)CC5)CCO4)cc2[nH]1`, 10 to 50 nM; that for `CC[C@H]1CCCc2c(ncnc2N2CCOc3ccc(-c4cnc5nc(C)[nH]c5c4)cc3C2)C1`, 10 to 50 nM.
The result for `CC1(C)CCc2ncnc(N3CCOc4ccc(-c5cnc(N)c(S(=O)(=O)N6CC7CNCC7C6)c5)cc4C3)c2C1` (stereo not drawn) reads 50 to 250 nM.
In turn, `Nc1nc2ncc(-c3ccc4c(c3)CN(c3ncnc5ccc(F)cc35)CCO4)cc2[nH]1` yielded an IC50 not above 10 nM.
For the compound `COCCNCc1nc2c(c(N3CCOc4ccc(-c5ccc6nc(C)[nH]c6c5)cc4C3)n1)CC(C)(C)CC2`, the IC50 lay in the range of 10 to 50 nM.
As to `CC(O)c1nc2cc(-c3ccc4c(c3)CN(c3ncnc5c3CC(C)(C)CC5)CCO4)cnc2[nH]1` (stereo not drawn), the IC50 is 50 to 250 nM.
In the case of `CCN(CC)Cc1nc2c(c(N3CCOc4ccc(-c5cnc6nc(C)[nH]c6c5)cc4C3)n1)CC(C)(C)CC2`, the IC50 was in the range of 10 to 50 nM.
Under `Cc1nc2ncc(-c3ccc4c(c3)CN(c3nc(CN5CCC(F)(F)C5)nc5c3CC(C)(C)CC5)CCO4)cc2[nH]1` stands 50 to 250 nM; under `CSc1nc2ccc(-c3ccc4c(c3)CN(c3ccnc5ccccc35)CCO4)cc2[nH]1`, 10 to 50 nM.
The compound `CC1(C)CCc2ncnc(N3CCOc4ccc(-c5cnc(N)c(S(=O)(=O)NCC6CCCCN6)c5)cc4C3)c2C1` (stereo not drawn) had an IC50 of 50 to 250 nM.
Compound `CCc1c(C(C)C)ncnc1N1CCOc2ccc(-c3ccc4nc(C)[nH]c4c3)cc2C1` came in with an IC50 of 250 to 1000 nM.
As to `CC[C@H]1CCc2c(nc(CN(C)C)nc2N2CCOc3ccc(-c4cnc5nc(C)[nH]c5c4)cc3C2)C1`, the IC50 was not above 10 nM.
`COc1ccc2c(N3CCOc4ccc(-c5cnc6nc(C)[nH]c6c5)cc4C3)ncnc2c1` showed an IC50 not above 10 nM.
`Cc1nc2c(c(N3CCOc4ccc(-c5cnc(N)c(S(=O)(=O)N[C@@H]6CCN(C)C6)c5)cc4C3)n1)CC(C)(C)CC2`: the IC50 lay within 50 to 250 nM.
Under `Cc1nc2ccc(-c3ccc4c(c3)CN(c3ccnc5cc(F)ccc35)CCO4)cc2[nH]1` stands not above 10 nM; under `Cc1nc2ncc(-c3ccc4c(c3)CN(c3ncnc5c3CC(C)CC5)CCO4)cc2[nH]1` (stereo not drawn), 10 to 50 nM; under `CN(C)Cc1nc2c(c(N3CCOc4ccc(-c5ccc(Cl)c(C(N)=O)c5)cc4C3)n1)CC(C)(C)CC2`, 250 to 1000 nM.
Compound `Cc1nc2ncc(-c3ccc4c(c3)CN(c3nc(CN5CC[C@@H](F)C5)nc5c3CC(C)(C)CC5)CCO4)cc2[nH]1` gave an IC50 not above 10 nM.
As for `Cc1nc2ccc(-c3ccc4c(c3)CN(c3ncnc(C)c3Cc3ccccc3)CCO4)cc2[nH]1`, the IC50 lay within 10 to 50 nM.
`CCc1ncnc(N2CCOc3ccc(-c4cnc5nc(C)[nH]c5c4)cc3C2)c1C` gave an IC50 of 50 to 250 nM.
The compound `COc1ccc2c(N3CCOc4ccc(-c5cccc(C(=O)O)c5)cc4C3)nc(C)nc2c1` yielded an IC50 of 250 to 1000 nM.
Turning to `CCNc1nc2ccc(-c3ccc4c(c3)CN(c3ccnc5c(F)cccc35)CCO4)cc2[nH]1`, the IC50 is not above 10 nM.
The compound `Cc1nc2cc(-c3ccc4c(c3)CN(c3nc(C(C)N5CCCC5)nc5c3CC(C)(C)CC5)CCO4)cnc2[nH]1` (stereo not drawn) registered an IC50 of 50 to 250 nM.
`Cc1nc2ccc(-c3ccc4c(c3)CN(c3ncnc5cc(Cl)c(Br)cc35)CCO4)cc2[nH]1` yielded an IC50 of 250 to 1000 nM.
Under `CC[C@@H](C)NCc1nc2c(c(N3CCOc4ccc(-c5cnc6nc(C)[nH]c6c5)cc4C3)n1)CC(C)(C)CC2` stands 10 to 50 nM; under `Cc1ncnc(N2CCOc3ccc(-c4cnc(N)nc4)cc3C2)c1Cc1ccc(F)cc1`, 50 to 250 nM; under `CN(C)Cc1nc2c(c(N3CCOc4ccc(-c5ccc(N)nc5)cc4C3)n1)CC(C)(C)CC2`, 50 to 250 nM.
Compound `Cc1nc2cc(-c3ccc4c(c3)CN(c3nc(N)nc(C)c3Cc3ccc(F)cc3)CCO4)ccc2[nH]1` came in with an IC50 not above 10 nM.
Compound `C=CCc1c(C)nc(CN(C)C)nc1N1CCOc2ccc(-c3ccc4nc(C)[nH]c4c3)cc2C1` came in with an IC50 not above 10 nM.
`CC1(C)CCc2ncnc(N3CCOc4ccc(-c5cnc(N)c(S(=O)(=O)N6CC(O)(CO)C6)c5)cc4C3)c2C1` came in with an IC50 of 10 to 50 nM.
`COc1ccc2c(N3CCOc4ccc(-c5cnc(N)nc5)cc4C3)nc(C)nc2c1` had an IC50 of 50 to 250 nM.
Take `Cc1ncnc(N2CCOc3ccc(-c4ccc(C(=O)NC5CC5)cc4)cc3C2)c1Cc1ccc(F)cc1`: the IC50 was 250 to 1000 nM.
Compound `CCc1ncnc(N2CCOc3ccc(-c4ccc5nc(C)[nH]c5c4)cc3C2)c1Cc1ccccc1` registered an IC50 of 10 to 50 nM.
The compound `CC1=CC(C)(C)Cc2c1ncnc2N1CCOc2ccc(-c3cnc(N)c(S(=O)(=O)N[C@@H]4CCN(C)C4)c3)cc2C1` registered an IC50 of 50 to 250 nM.
For the compound `CC1(C)CCc2ncnc(N3CCOc4ccc(-c5cnc(N)c(S(=O)(=O)N6CC(N)C6)c5)cc4C3)c2C1`, the IC50 is 10 to 50 nM.
`Cc1ncnc(N2CCOc3ccc(-c4ccc(C(N)=O)cc4)cc3C2)c1Cc1ccc(F)cc1` gave an IC50 of 10 to 50 nM.
With `c1ccc2c(N3CCOc4ccc(-c5ccc6scnc6c5)cc4C3)ccnc2c1`, the IC50 lay within 250 to 1000 nM.
In turn, `CC(=O)Nc1nc2cc(-c3ccc4c(c3)CN(c3nc(CN(C)C)nc5c3CC(C)(C)CC5)CCO4)cnc2s1` came in with an IC50 of 10 to 50 nM.
For `COC(=O)Nc1nc2ncc(-c3ccc4c(c3)CN(c3nc(CN(C)C)nc5c3CC(C)(C)CC5)CCO4)cc2[nH]1`, the IC50 was not above 10 nM.
Regarding `CCc1c(C)ncnc1N1CCOc2ccc(-c3ccc4nc(C)[nH]c4c3)cc2C1`, the IC50 lay in the range of 50 to 250 nM.
`Cc1nc2ncc(-c3ccc4c(c3)CN(c3ncnc(C)c3C(C)C)CCO4)cc2[nH]1` yielded a concentration for half-maximal inhibition (IC50) of 10 to 50 nM.
Under `Cc1nc2ncc(-c3ccc4c(c3)CN(c3ncnc5c3CCC(C(F)(F)F)C5)CCO4)cc2[nH]1` (stereo not drawn) stands 50 to 250 nM; under `COc1ccccc1Cc1c(C)ncnc1N1CCOc2ccc(-c3ccc4nc(C)[nH]c4c3)cc2C1`, 50 to 250 nM.
`COCC1CCc2c(ncnc2N2CCOc3ccc(-c4cnc5nc(C)[nH]c5c4)cc3C2)C1` (stereo not drawn) yielded an IC50 of 10 to 50 nM.
The compound `Cc1nc2cc(-c3ccc4c(c3)CN(c3nc(CN(C)C)nc(C)c3C(C)C)CCO4)ccc2[nH]1` gave an IC50 not above 10 nM.
As to `COc1cc2c(N3CCOc4ccc(-c5ccc6nc(C)[nH]c6c5)cc4C3)ncnc2cc1O`, the IC50 fell in the range of 10 to 50 nM.
For the compound `CCNc1nc2ccc(-c3ccc4c(c3)CN(c3ncnc(Nc5ccc(OC)cc5)c3C)CCO4)cc2[nH]1`, the IC50 is 10 to 50 nM.
For the compound `COC(=O)Nc1nc2ccc(-c3ccc4c(c3)CN(c3ccnc5cc(OC)c(OC)cc35)CCO4)cc2[nH]1`, the IC50 is not above 10 nM.
The result for `Cc1nc2ccc(-c3ccc4c(c3)CN(c3ncnc(C)c3Cc3ccc(F)c(F)c3)CCO4)cc2[nH]1` reads 10 to 50 nM; that for `Cc1ncnc(N2CCOc3ccc(-c4cnc(N)cn4)cc3C2)c1Cc1ccc(F)cc1`, 250 to 1000 nM; that for `CCNC(=O)c1ccc(-c2ccc3c(c2)CN(c2ccnc4ccccc24)CCO3)cc1`, 250 to 1000 nM.
The result for `CCNc1nc2ccc(-c3ccc4c(c3)CN(c3ccnc5cc(OC)ccc35)CCO4)cc2[nH]1` reads not above 10 nM.
Compound `Cc1nc2ccc(-c3ccc4c(c3)CN(c3ncnc5ccc(F)cc35)CCO4)cc2[nH]1` had an IC50 of 50 to 250 nM.
The result for `C[C@H](CO)CS(=O)(=O)c1cc(-c2ccc3c(c2)CN(c2ncnc4c2CC(C)(C)CC4)CCO3)cnc1N` reads 10 to 50 nM.
For `CNCCN(C)c1ncnc(N2CCOc3ccc(-c4cnc5nc(C6CC6)[nH]c5c4)cc3C2)c1C`, the IC50 was 250 to 1000 nM.
In turn, `Cc1nc2ccc(-c3ccc4c(c3)CN(c3nc(CNC5CC5)nc(C)c3Cc3ccc(F)cc3)CCO4)cc2[nH]1` registered an IC50 of 10 to 50 nM.
